For this assay, the system named is L1210 leukemia ip in BDF1 mice, survival T/C. Nature of the assay: NCI In Vivo Anticancer Drug Screen. Data for tumor model L1210 Leukemia (intraperitoneal) in B6D2F1 (BDF1) mice. To be noted: endpoint: mean survival time, higher = longer survival. An outline of the steps: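 Antitumor effect is assessed in tumor-bearing animals. Survival in the compound arm is compared with a vehicle-dosed control arm and expressed as their quotient.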

[1] abbreviates: dose: 100.0 mg/kg/injection, schedule: Q01DX009 (ip), vehicle: Klucel (hydroxypropylcellulose) (HPC).
Setting [2] is: dose: 200.0 mg/kg/injection, schedule: Q01DX009 (ip), vehicle: Klucel (hydroxypropylcellulose) (HPC).
The mark [3] stands for this setting: dose: 400.0 mg/kg/injection, schedule: Q01DX009 (ip), vehicle: Klucel (hydroxypropylcellulose) (HPC).
Setting [4] is: dose: 100.0 mg/kg/injection, schedule: Q01DX001 (ip), vehicle: Klucel (hydroxypropylcellulose) (HPC).
Where [5] appears, read: dose: 200.0 mg/kg/injection, schedule: Q01DX001 (ip), vehicle: Klucel (hydroxypropylcellulose) (HPC).
[6] abbreviates: dose: 400.0 mg/kg/injection, schedule: Q01DX001 (ip), vehicle: Klucel (hydroxypropylcellulose) (HPC).
The mark [7] stands for this setting: dose: 25.0 mg/kg/injection, schedule: Q01DX009 (ip), vehicle: saline with Tween-80.
Where [8] appears, read: dose: 50.0 mg/kg/injection, schedule: Q01DX009 (ip), vehicle: saline with Tween-80.
Where [9] appears, read: dose: 100.0 mg/kg/injection, schedule: Q01DX001 (ip), vehicle: saline with Tween-80.
Where [10] appears, read: dose: 100.0 mg/kg/injection, schedule: Q01DX009 (ip), vehicle: saline with Tween-80.
[11] abbreviates: dose: 200.0 mg/kg/injection, schedule: Q01DX001 (ip), vehicle: saline with Tween-80.
Where [12] appears, read: dose: 200.0 mg/kg/injection, schedule: Q01DX009 (ip), vehicle: saline with Tween-80.
Where [13] appears, read: dose: 100.0 mg/kg/injection, schedule: Q01DX001 (ip), vehicle: saline.
The mark [14] stands for this setting: dose: 200.0 mg/kg/injection, schedule: Q01DX001 (ip), vehicle: saline.
The mark [15] stands for this setting: dose: 400.0 mg/kg/injection, schedule: Q01DX001 (ip), vehicle: saline.
Where [16] appears, read: dose: 400.0 mg/kg/injection, schedule: Q01DX001 (ip), vehicle: saline with Tween-80.

Structures are written as SMILES. Several values for one entry are separate records, joined by “and”; a condition that tells them apart may be missing. Equal entries are not always repeated. Inconclusive results and toxic doses are left out.

As for `Cn1c(CO)nc2c1c(=O)[nH]c(=O)n2C`, the T/C reads like this: (dose: 100.0 mg/kg/injection, schedule: Q01DX001 (ip), vehicle: other) 98 % of control; (dose: 200.0 mg/kg/injection, schedule: Q01DX001 (ip), vehicle: other) 98 % of control; (dose: 400.0 mg/kg/injection, schedule: Q01DX001 (ip), vehicle: other) 95 % of control.
Regarding `O=C(Nc1cccc(F)c1)Nc1ccc2ccccc2c1`, the T/C by setting is: under setting [1], 105 % of control; under setting [2], 97 % of control; under setting [3], 97 % of control.
For `CCCc1ccccc1O`, the T/C is 97 % of control (dose: 100.0 mg/kg/injection, schedule: Q04DX003 (ip), vehicle: alcohol) and 94 % of control (dose: 200.0 mg/kg/injection, schedule: Q04DX003 (ip), vehicle: alcohol).
With `COC(=O)c1cc(=O)c2c(=O)n(Cc3ccccc3)c(=O)n(Cc3ccccc3)c2[nH]1`, the T/C was 106 % of control under setting [4], 100 % of control under setting [5] and 118 % of control under setting [6].
On to `C=[CH][Pb]([CH]=C)([O]C(=O)C(C)C)[O]C(=O)C(C)C`, for which the T/C was 104 % of control (dose: 5.0 mg/kg/injection, schedule: Q04DX003 (ip), vehicle: saline); 106 % of control (dose: 10.0 mg/kg/injection, schedule: Q04DX003 (ip), vehicle: saline); 101 % of control (dose: 20.0 mg/kg/injection, schedule: Q04DX003 (ip), vehicle: saline).
For the compound `C/C=C/C(=O)Nc1cc(C(F)(F)F)ccc1Cl`, the T/C was 93 % of control and 97 % of control under setting [7]; 97 % of control and 89 % of control under setting [8]; 98 % of control (dose: 50.0 mg/kg/injection, schedule: Q04DX003 (ip), vehicle: saline with Tween-80); 98 % of control under setting [9]; 96 % of control and 90 % of control under setting [10]; 94 % of control and 102 % of control (dose: 100.0 mg/kg/injection, schedule: Q01DX009 (ip), vehicle: saline). In addition, the T/C was 102 % of control and 109 % of control (dose: 100.0 mg/kg/injection, schedule: Q04DX002 (ip), vehicle: saline); 98 % of control and 89 % of control (dose: 100.0 mg/kg/injection, schedule: Q04DX003 (ip), vehicle: saline with Tween-80); 88 % of control under setting [11]; 88 % of control (dose: 200.0 mg/kg/injection, schedule: Q01DX009 (ip), vehicle: saline); 94 % of control and 103 % of control (dose: 200.0 mg/kg/injection, schedule: Q04DX002 (ip), vehicle: saline); 109 % of control (dose: 200.0 mg/kg/injection, schedule: Q04DX003 (ip), vehicle: saline with Tween-80). Besides, the T/C runs as follows: (dose: 400.0 mg/kg/injection, schedule: Q04DX002 (ip), vehicle: saline) 95 % of control; (dose: 400.0 mg/kg/injection, schedule: Q04DX003 (ip), vehicle: saline with Tween-80) 95 % of control.
As for `O=C(Nc1c(Cl)c(Cl)c2c(c1Cl)Cc1cc(Cl)ccc1-2)C(Cl)Cl`, the T/C was 101 % of control (dose: 100.0 mg/kg/injection, schedule: Q01DX001 (ip), vehicle: carboxymethylcellulose (CMC)); 101 % of control (dose: 200.0 mg/kg/injection, schedule: Q01DX001 (ip), vehicle: carboxymethylcellulose (CMC)); 106 % of control (dose: 400.0 mg/kg/injection, schedule: Q01DX001 (ip), vehicle: carboxymethylcellulose (CMC)).
As to `Cc1nc(N)[nH]c(=O)c1CCCNCc1ccccn1`, the T/C is 101 % of control (dose: 25.0 mg/kg/injection, schedule: Q01DX001 (ip), vehicle: saline with Tween-80); 98 % of control (dose: 50.0 mg/kg/injection, schedule: Q01DX001 (ip), vehicle: saline with Tween-80); 93 % of control under setting [9].
For the compound `O=C1C2=C(C(=O)c3ccccc31)C(=O)C1CC=CCC1C2=O` (stereo not drawn), the T/C (dose: 0.25 mg/kg/injection, schedule: Q04DX003 (ip), vehicle: saline with Tween-80) is 102 % of control; the T/C (dose: 0.5 mg/kg/injection, schedule: Q04DX003 (ip), vehicle: saline with Tween-80) is 104 % of control; the T/C (dose: 1.0 mg/kg/injection, schedule: Q04DX003 (ip), vehicle: saline with Tween-80) is 98 % of control; the T/C (dose: 2.0 mg/kg/injection, schedule: Q04DX003 (ip), vehicle: saline with Tween-80) was 96 % of control; the T/C (dose: 4.0 mg/kg/injection, schedule: Q04DX003 (ip), vehicle: saline with Tween-80) was 110 % of control; the T/C (dose: 8.0 mg/kg/injection, schedule: Q04DX003 (ip), vehicle: saline with Tween-80) is 100 % of control and 105 % of control. Besides, the T/C reads like this: (dose: 16.0 mg/kg/injection, schedule: Q04DX003 (ip), vehicle: saline with Tween-80) 102 % of control and 103 % of control; under setting [7], 106 % of control; (dose: 32.0 mg/kg/injection, schedule: Q04DX003 (ip), vehicle: saline with Tween-80) 103 % of control; under setting [8], 106 % of control; (dose: 64.0 mg/kg/injection, schedule: Q04DX003 (ip), vehicle: saline with Tween-80) 97 % of control and 105 % of control; under setting [10], 110 % of control. The T/C is, setting by setting: (dose: 128.0 mg/kg/injection, schedule: Q04DX003 (ip), vehicle: saline with Tween-80) 105 % of control; under setting [12], 101 % of control; (dose: 256.0 mg/kg/injection, schedule: Q04DX003 (ip), vehicle: saline with Tween-80) 94 % of control.
On to `COc1ccc(NC(c2ccco2)P(=O)(c2ccccc2)c2ccccc2)cc1` (stereo not drawn), for which the T/C under setting [1] is 91 % of control, the T/C under setting [2] is 104 % of control and the T/C under setting [3] is 98 % of control.
With `NC1CCC(CC(=O)O)CC1` (stereo not drawn), the T/C was 105 % of control under setting [13], 89 % of control under setting [14] and 96 % of control under setting [15].
For the compound `CC(=O)OC1C(C(=O)O)CC(C(=O)O)C1OC(C)=O` (stereo not drawn), the T/C runs as follows: (dose: 88.0 mg/kg/injection, schedule: Q01DX001 (ip), vehicle: saline) 88 % of control; under setting [13], 108 % of control; (dose: 133.0 mg/kg/injection, schedule: Q01DX001 (ip), vehicle: saline) 98 % of control; under setting [14], 98 % of control; (dose: 300.0 mg/kg/injection, schedule: Q01DX001 (ip), vehicle: saline) 98 % of control; under setting [15], 106 % of control.
Take `CN(Cc1cnc2nc(NCNC(=O)C3=C(O)[C@@]4(O)C(=O)C5=C(O)c6c(O)cccc6[C@@](C)(O)[C@H]5C[C@H]4[C@H](N(C)C)C3=O)nc(N)c2n1)c1ccc(C(=O)NC(CCC(=O)O)C(=O)O)cc1` (stereo partly drawn): the T/C was 213 % of control (dose: 1.5 mg/kg/injection, schedule: Q01DX015 (ip), vehicle: saline); 219 % of control (dose: 3.0 mg/kg/injection, schedule: Q01DX015 (ip), vehicle: saline); 163 % of control (dose: 6.0 mg/kg/injection, schedule: Q01DX015 (ip), vehicle: saline); 107 % of control (dose: 12.0 mg/kg/injection, schedule: Q01DX015 (ip), vehicle: saline); 87 % of control (dose: 24.0 mg/kg/injection, schedule: Q01DX015 (ip), vehicle: saline).
As to `O=C(NCc1ccccc1)NCc1ccccc1`, the T/C runs as follows: under setting [4], 112 % of control; under setting [5], 97 % of control; under setting [6], 105 % of control.
Turning to `C/C(=N\O)C(C)C`, the T/C by setting is: under setting [9], 93 % of control; under setting [10], 100 % of control; under setting [11], 101 % of control; under setting [12], 98 % of control; under setting [16], 98 % of control; (dose: 400.0 mg/kg/injection, schedule: Q01DX009 (ip), vehicle: saline with Tween-80) 92 % of control.
Take `CC1(C)CCC2=C(O1)C(=O)c1ccccc1C2=O`: the T/C is, setting by setting: under setting [9], 102 % of control; under setting [11], 104 % of control; under setting [16], 94 % of control.

The record behind these values is PubChem BioAssay AID248 (DTP/NCI, 2004).
